{
  "source": "patent US10906915B2",
  "about": "“Substituted pyrazoloazepin-4-ones and their use as phosphodiesterase inhibitors” (LEO Pharma A/S, priority 2016, dated 2021)",
  "data": [
    {"target": "human PDE4D catalytic domain (UniProt no. Q08499) (Homo sapiens (Human), UniProt Q08499)", "sequence (Q08499 380-740 limits assumed)": "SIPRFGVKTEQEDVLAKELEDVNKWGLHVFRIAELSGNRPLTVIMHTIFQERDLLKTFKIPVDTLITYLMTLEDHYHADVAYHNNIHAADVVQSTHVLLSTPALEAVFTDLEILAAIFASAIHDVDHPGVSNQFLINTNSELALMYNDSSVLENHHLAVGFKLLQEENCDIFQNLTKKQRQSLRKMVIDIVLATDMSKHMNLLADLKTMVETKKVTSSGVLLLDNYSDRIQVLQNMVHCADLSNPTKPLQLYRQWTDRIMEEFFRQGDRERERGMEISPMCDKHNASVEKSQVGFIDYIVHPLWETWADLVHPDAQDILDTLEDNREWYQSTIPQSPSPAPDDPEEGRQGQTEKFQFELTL", "assay": "PDE4 assay (TR-FRET, FAM-cAMP cleavage)", "type": "biochemical", "conditions": "human PDE4D catalytic domain; molar concentration giving 50% inhibition of substrate cleavage; read-out: PDE4 IC50 range", "outline": "(§1)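 Read-out is time-resolved FRET from Tb donor to FAM-AMP captured on trivalent-metal nanoparticles added to stop the reaction. Substrate was a mix of plain and FAM-labelled cAMP, cleaved by human PDE4D catalytic domain ([…]) with titrated compound; IC50 ranges (nM) versus controls.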", "units": {"IC50": "nM"}, "values": [
      {"smiles": "CCc1nn(CCCOC(=O)c2ccc(C(F)(F)F)cc2Cl)c2c1C(=O)NCC1(CCOCC1)C2", "note": "[Example 126, 3-(3-ethyl-4-oxo-spiro[6,8-dihydro-5H-pyrazolo[4,3-c]azepine-7,4′-tetrahydropyran]-1-yl)propyl 2-chloro-4-(trifluoromethyl)benzoate]", "IC50": "< 100"},
      {"smiles": "CCc1nn(CCCOC(=O)c2cc(C(F)(F)F)ccc2Cl)c2c1C(=O)NCC1(CCOCC1)C2", "note": "[Example 128, 3-(3-ethyl-4-oxo-spiro[6,8-dihydro-5H-pyrazolo[4,3-c]azepine-7,4′-tetrahydropyran]-1-yl)propyl 2-chloro-5-(trifluoromethyl)benzoate]", "IC50": "< 100"},
      {"smiles": "CCc1nn(CCCOC(=O)c2c(F)cccc2Cl)c2c1C(=O)NCC1(CCOCC1)C2", "note": "[Example 80, 3-(3-ethyl-4-oxo-spiro[6,8-dihydro-5H-pyrazolo[4,3-c]azepine-7,4′-tetrahydropyran]-1-yl)propyl 2-chloro-6-fluoro-benzoate]", "IC50": "< 100"},
      {"smiles": "CCc1nn(CCCOC(=O)c2cc(Cl)ccc2C(F)(F)F)c2c1C(=O)NCC1(CCOCC1)C2", "note": "[Example 124, 3-(3-ethyl-4-oxo-spiro[6,8-dihydro-5H-pyrazolo[4,3-c]azepine-7,4′-tetrahydropyran]-1-yl)propyl 5-chloro-2-(trifluoromethyl)benzoate]", "IC50": "< 100"},
      {"smiles": "CCc1nn(C[C@@H](C)COC(=O)c2cccc(F)c2F)c2c1C(=O)NCC1(CCOCC1)C2", "note": "[Example 179, [(2R)-3-(3-ethyl-4-oxo-spiro[6,8-dihydro-5H-pyrazolo[4,3-c]azepine-7,4′-tetrahydropyran]-1-yl)-2-methyl-propyl] 2,3-difluorobenzoate]", "IC50": "< 100"},
      {"smiles": "CCc1nn(CCCOC(=O)c2ccc(C#N)cc2F)c2c1C(=O)NCC1(CCOCC1)C2", "note": "[Example 54, 3-(3-ethyl-4-oxo-spiro[6,8-dihydro-5H-pyrazolo[4,3-c]azepine-7,4′-tetrahydropyran]-1-yl)propyl 4-cyano-2-fluoro-benzoate]", "IC50": "< 100"},
      {"smiles": "CCc1nn(CCCOC(=O)c2cccc(OC)c2)c2c1C(=O)NCC1(CCOCC1)C2", "note": "[Example 29, 3-(3-ethyl-4-oxo-spiro[6,8-dihydro-5H-pyrazolo[4,3-c]azepine-7,4′-tetrahydropyran]-1-yl)propyl 3-methoxybenzoate]", "IC50": "< 100"},
      {"smiles": "CCc1nn(CCCOC(=O)c2ccc(F)c(F)c2)c2c1C(=O)NCC1(CCOCC1)C2", "note": "[Example 44, 3-(3-ethyl-4-oxo-spiro[6,8-dihydro-5H-pyrazolo[4,3-c]azepine-7,4′-tetrahydropyran]-1-yl)propyl 3,4-difluorobenzoate]", "IC50": "< 100"},
      {"smiles": "CCc1nn(CCCOC(=O)c2cccc(Cl)c2OC)c2c1C(=O)NCC1(CCOCC1)C2", "note": "[Example 94, 3-(3-ethyl-4-oxo-spiro[6,8-dihydro-5H-pyrazolo[4,3-c]azepine-7,4′-tetrahydropyran]-1-yl)propyl 3-chloro-2-methoxy-benzoate]", "IC50": "< 100"},
      {"smiles": "CCc1nn(C[C@@H](C)COC(=O)c2ccc(S(=O)(=O)N3CCCC3)cc2)c2c1C(=O)NCC1(CCOCC1)C2", "note": "[Example 245, [(2R)-3-(3-ethyl-4-oxo-spiro[6,8-dihydro-5H-pyrazolo[4,3-c]azepine-7,4′-tetrahydropyran]-1-yl)-2-methyl-propyl] 4-pyrrolidin-1-ylsulfonylbenzoate]", "IC50": "< 100"},
      {"smiles": "CCc1nn(C[C@@H](C)COC(=O)c2ccc(C(F)(F)F)c(Cl)c2)c2c1C(=O)NCC1(CCOCC1)C2", "note": "[Example 234, [(2R)-3-(3-ethyl-4-oxo-spiro[6,8-dihydro-5H-pyrazolo[4,3-c]azepine-7,4′-tetrahydropyran]-1-yl)-2-methyl-propyl] 3-chloro-4-(trifluoromethyl)benzoate]", "IC50": "< 100"},
      {"smiles": "CCc1nn(CCCOC(=O)C(CC)CC)c2c1C(=O)NCC1(CCOCC1)C2", "note": "[Example 11, 3-(3-ethyl-4-oxo-spiro[6,8-dihydro-5H-pyrazolo[4,3-c]azepine-7,4′-tetrahydropyran]-1-yl)propyl 2-ethylbutanoate]", "IC50": "< 100"},
      {"smiles": "CCc1nn(CCCOC(=O)c2ccc(S(=O)(=O)C3CCCC3)cc2)c2c1C(=O)NCC1(CCOCC1)C2", "note": "[Example 132, 3-(3-ethyl-4-oxo-spiro[6,8-dihydro-5H-pyrazolo[4,3-c]azepine-7,4′-tetrahydropyran]-1-yl)propyl 4-cyclopentylsulfonyl-benzoate]", "IC50": "100 to 500"},
      {"smiles": "CCc1nn(CCCOC(=O)c2cccc(F)c2C(F)(F)F)c2c1C(=O)NCC1(CCOCC1)C2", "note": "[Example 106, 3-(3-ethyl-4-oxo-spiro[6,8-dihydro-5H-pyrazolo[4,3-c]azepine-7,4′-tetrahydropyran]-1-yl)propyl 3-fluoro-2-(trifluoromethyl)benzoate]", "IC50": "< 100"},
      {"smiles": "CCc1nn(CCCOC(=O)c2cccc(C)c2)c2c1C(=O)NCC1(CCOCC1)C2", "note": "[Example 15, 3-(3-ethyl-4-oxo-spiro[6,8-dihydro-5H-pyrazolo[4,3-c]azepine-7,4′-tetrahydropyran]-1-yl)propyl 3-methylbenzoate]", "IC50": "< 100"},
      {"smiles": "CCc1nn(CCCOC(=O)c2cc(F)cc(Cl)c2)c2c1C(=O)NCC1(CCOCC1)C2", "note": "[Example 79, 3-(3-ethyl-4-oxo-spiro[6,8-dihydro-5H-pyrazolo[4,3-c]azepine-7,4′-tetrahydropyran]-1-yl)propyl 3-chloro-5-fluoro-benzoate]", "IC50": "< 100"},
      {"smiles": "CCc1nn(CCCOC(=O)COC(C)C)c2c1C(=O)NCC1(CCOCC1)C2", "note": "[Example 12, 3-(3-ethyl-4-oxo-spiro[6,8-dihydro-5H-pyrazolo[4,3-c]azepine-7,4′-tetrahydropyran]-1-yl)propyl 2-isopropoxyacetate]", "IC50": "> 500"},
      {"smiles": "CCc1nn(CCCOC(=O)c2ccc(C(=O)N3CCCCC3)cc2)c2c1C(=O)NCC1(CCOCC1)C2", "note": "[Example 146, 3-(3-ethyl-4-oxo-spiro[6,8-dihydro-5H-pyrazolo[4,3-c]azepine-7,4′-tetrahydropyran]-1-yl)propyl 4-(piperidine-1-carbonyl)benzoate]", "IC50": "< 100"},
      {"smiles": "CCc1nn(CCCOC(=O)c2ccc(OC)cc2Cl)c2c1C(=O)NCC1(CCOCC1)C2", "note": "[Example 89, 3-(3-ethyl-4-oxo-spiro[6,8-dihydro-5H-pyrazolo[4,3-c]azepine-7,4′-tetrahydropyran]-1-yl)propyl 2-chloro-4-methoxy-benzoate]", "IC50": "< 100"},
      {"smiles": "CCc1nn(CCCOC(=O)c2ccc(F)cc2C)c2c1C(=O)NCC1(CCOCC1)C2", "note": "[Example 38, 3-(3-ethyl-4-oxo-spiro[6,8-dihydro-5H-pyrazolo[4,3-c]azepine-7,4′-tetrahydropyran]-1-yl)propyl 4-fluoro-2-methyl-benzoate]", "IC50": "< 100"}
    ]},
    {"target": "human PDE4D catalytic domain (UniProt no. Q08499) (Homo sapiens (Human), UniProt Q08499)", "assay": "PDE4 assay (TR-FRET, FAM-cAMP cleavage)", "type": "biochemical", "conditions": "read-out: PDE4 IC50 range", "outline": "as §1", "units": {"IC50": "nM"}, "values": [
      {"smiles": "CCc1nn(CC2(COC(=O)c3cccc(OC)c3)COC2)c2c1C(=O)NCC1(CCOCC1)C2", "note": "[Example 360, [3-[(3-ethyl-4-oxo-spiro[6,8-dihydro-5H-pyrazolo[4,3-c]azepine-7,4′-tetrahydropyran]-1-yl)methyl]oxetan-3-yl]methyl 3-methoxybenzoate]", "IC50": "< 100"},
      {"smiles": "CCc1nn(CCCCOC(=O)c2cccc(S(C)(=O)=O)c2)c2c1C(=O)NCC1(CCOCC1)C2", "note": "[Example 369, 4-(3-ethyl-4-oxo-spiro[6,8-dihydro-5H-pyrazolo[4,3-c]azepine-7,4′-tetrahydropyran]-1-yl)butyl 3-methylsulfonylbenzoate]", "IC50": "100 to 500"},
      {"smiles": "CCc1nn(CC(C)(C)COC(=O)c2ccc(C(=O)N3CCCC3)cc2)c2c1C(=O)NCC1(CCOCC1)C2", "note": "[Example 333, [3-(3-ethyl-4-oxo-spiro[6,8-dihydro-5H-pyrazolo[4,3-c]azepine-7,4′-tetrahydropyran]-1-yl)-2,2-dimethyl-propyl] 4-(pyrrolidine-1-carbonyl)benzoate]", "IC50": "< 100"},
      {"smiles": "CCc1nn(CC2(COC(=O)c3ccc(F)cc3)COC2)c2c1C(=O)NCC1(CCOCC1)C2", "note": "[Example 359, [3-[(3-ethyl-4-oxo-spiro[6,8-dihydro-5H-pyrazolo[4,3-c]azepine-7,4′-tetrahydropyran]-1-yl)methyl]oxetan-3-yl]methyl 4-fluorobenzoate]", "IC50": "< 100"},
      {"smiles": "CCc1nn(CC(C)(C)COC(=O)c2ccc(S(=O)(=O)C(C)C)cc2)c2c1C(=O)NCC1(CCOCC1)C2", "note": "[Example 317, [3-(3-ethyl-4-oxo-spiro[6,8-dihydro-5H-pyrazolo[4,3-c]azepine-7,4′-tetrahydropyran]-1-yl)-2,2-dimethyl-propyl] 4-isopropylsulfonylbenzoate]", "IC50": "< 100"},
      {"smiles": "CCc1nn(C[C@@H](C)COC(=O)c2cccc(C(=O)NC)c2)c2c1C(=O)NCC1(CCOCC1)C2", "note": "[Example 264, [(2R)-3-(3-ethyl-4-oxo-spiro[6,8-dihydro-5H-pyrazolo[4,3-c]azepine-7,4′-tetrahydropyran]-1-yl)-2-methyl-propyl] 3-(methylcarbamoyl)benzoate]", "IC50": "< 100"},
      {"smiles": "CCc1nn(CC(C)(C)COC(=O)c2cccc(F)c2)c2c1C(=O)NCC1(CCOCC1)C2", "note": "[Example 284, [3-(3-ethyl-4-oxo-spiro[6,8-dihydro-5H-pyrazolo[4,3-c]azepine-7,4′-tetrahydropyran]-1-yl)-2,2-dimethyl-propyl] 3-fluorobenzoate]", "IC50": "< 100"},
      {"smiles": "CCc1nn(CC(C)(C)COC(=O)c2cc(F)cc(F)c2)c2c1C(=O)NCC1(CCOCC1)C2", "note": "[Example 293, [3-(3-ethyl-4-oxo-spiro[6,8-dihydro-5H-pyrazolo[4,3-c]azepine-7,4′-tetrahydropyran]-1-yl)-2,2-dimethyl-propyl] 3,5-difluorobenzoate]", "IC50": "< 100"},
      {"smiles": "CCc1nn(CC(C)(C)COC(=O)c2ccc(S(=O)(=O)N3CCN(C(C)=O)CC3)cc2)c2c1C(=O)NCC1(CCOCC1)C2", "note": "[Example 324, [3-(3-ethyl-4-oxo-spiro[6,8-dihydro-5H-pyrazolo[4,3-c]azepine-7,4′-tetrahydropyran]-1-yl)-2,2-dimethyl-propyl] 4-(4-acetylpiperazin-1-yl)sulfonylbenzoate]", "IC50": "< 100"},
      {"smiles": "CCc1nn(CC(C)(C)COC(=O)c2ccccc2C(F)(F)F)c2c1C(=O)NCC1(CCOCC1)C2", "note": "[Example 303, [3-(3-ethyl-4-oxo-spiro[6,8-dihydro-5H-pyrazolo[4,3-c]azepine-7,4′-tetrahydropyran]-1-yl)-2,2-dimethyl-propyl] 2-(trifluoromethyl)benzoate]", "IC50": "< 100"}
    ]}
  ]
}
